Target: T1, His-hMAGL (recombinant polyhistidine tagged human MAGL protein) (Homo sapiens, UniProt Q99685)
T1 construct: made in house; host or cells: E. coli BL21(DE3)
T1 sequence (Q99685 1-303): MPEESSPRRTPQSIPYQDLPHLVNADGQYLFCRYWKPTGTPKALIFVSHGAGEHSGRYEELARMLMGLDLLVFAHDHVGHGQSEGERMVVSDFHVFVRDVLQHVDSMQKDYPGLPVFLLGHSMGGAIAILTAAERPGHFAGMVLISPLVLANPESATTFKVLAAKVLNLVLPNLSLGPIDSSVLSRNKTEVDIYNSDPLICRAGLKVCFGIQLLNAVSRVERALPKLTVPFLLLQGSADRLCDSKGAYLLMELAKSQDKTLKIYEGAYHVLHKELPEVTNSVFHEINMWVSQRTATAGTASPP
Assay: Measurement of MAGL inhibitory activity (arachidonic acid production from 2-arachidonylglycerol, RapidFire-mass spectrometry)
Assay type: biochemical
Details: MAGL inhibitory rate, test compound 10 μM, 60 min preincubation, 2-arachidonylglycerol substrate
Outline: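 Arachidonic acid formed was quantified by online solid-phase extraction and triple-quadrupole MS in negative SRM mode against a d8 internal standard. Reaction: recombinant His-hMAGL (7.5 ng/mL, pH 7.5 Tris buffer with Triton X-100 and BSA) plus 2-AG (5 μL of 150 μM stock) for 10 min at room temperature, quenched with 2% formic acid. Percent inhibition corrected for enzyme-free background.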

Row | inhibition at 10 µM [%] | SMILES
1 | 100 | O=C1NC2(CO1)CN(C(=O)c1sc3c(F)c(OC(F)(F)F)ccc3c1Cl)C2 [Example 279, 2-((3-chloro-7-fluoro-6-(trifluoromethoxy)-1-benzothiophen-2-yl)carbonyl)-7-oxa-2,5-diazaspiro[3.4]octan-6-one]
2 | 100 | Cc1ncccc1-c1ccc2c(Cl)c(C(=O)N3CC4(CCC(=O)N4)C3)sc2c1 [Example 229, 2-((3-chloro-6-(2-methylpyridin-3-yl)-1-benzothiophen-2-yl)carbonyl)-2,5-diazaspiro[3.4]octan-6-one]
3 | 100 | O=C1NC2(CO1)CN(C(=O)c1sc3ccc(C(F)(F)F)cc3c1Cl)C2 [Example 258, 2-((3-chloro-5-(trifluoromethyl)-1-benzothiophen-2-yl)carbonyl)-7-oxa-2,5-diazaspiro[3.4]octan-6-one]
4 | 95 | O=C1CCC2(CN(C(=O)c3sc(-c4cccc(OC(F)(F)F)c4)cc3Cl)C2)N1 [Example 248, 2-((3-chloro-5-(3-(trifluoromethoxy)phenyl)-2-thienyl)carbonyl)-2,5-diazaspiro[3.4]octan-6-one]
5 | 99 | O=C1NC2(CCN(C(=O)c3sc4c(F)c(F)cc(Cl)c4c3Cl)C2)CO1 (stereo not shown) [Example 340, 7-((3,4-dichloro-6,7-difluoro-1-benzothiophen-2-yl)carbonyl)-3-oxa-1,7-diazaspiro[4.4]nonan-2-one]
6 | 101 | O=C1NC2(CO1)CN(C(=O)c1sc3c(F)ccc(OC(F)F)c3c1Cl)C2 [Example 313, 2-((3-chloro-4-(difluoromethoxy)-7-fluoro-1-benzothiophen-2-yl)carbonyl)-7-oxa-2,5-diazaspiro[3.4]octan-6-one]
7 | 101 | O=C1NC2(CO1)CN(C(=O)c1sc3cc(C4CC4)cc(F)c3c1Cl)C2 [Example 311, 2-((3-chloro-6-cyclopropyl-4-fluoro-1-benzothiophen-2-yl)carbonyl)-7-oxa-2,5-diazaspiro[3.4]octan-6-one]
8 | 91 | O=C1CCC2(CN(C(=O)[C@H]3C[C@@H](COc4ccc(F)cc4Cl)C3)C2)N1 [Example 25, 2-((cis-3-((2-chloro-4-fluorophenoxy)methyl)cyclobutyl)carbonyl)-2,5-diazaspiro[3.4]octan-6-one]
9 | 90 | O=C1CCC2(CN(C(=O)c3sc4cc(-c5ccc(C(F)(F)F)cc5)ccc4c3Cl)C2)N1 [Example 197, 2-((3-chloro-6-(4-(trifluoromethyl)phenyl)-1-benzothiophen-2-yl)carbonyl)-2,5-diazaspiro[3.4]octan-6-one]
10 | 99 | Cc1cc(F)cc(-c2ccc3c(Cl)c(C(=O)N4CC5(CCC(=O)N5)C4)sc3c2)c1 [Example 211, 2-((3-chloro-6-(3-fluoro-5-methylphenyl)-1-benzothiophen-2-yl)carbonyl)-2,5-diazaspiro[3.4]octan-6-one]
11 | 102 | O=C1CCC2(CN(C(=O)N3CC(COc4ccc5c(c4)CCC5)C3)C2)N1 [Example 19, 2-((3-((2,3-dihydro-1H-inden-5-yloxy)methyl)azetidin-1-yl)carbonyl)-2,5-diazaspiro[3.4]octan-6-one]
12 | 100 | O=C1NC2(CO1)CN(C(=O)c1sc3c(Cl)c(OC(F)F)cc(F)c3c1Cl)C2 [Example 303, 2-((3,7-dichloro-6-(difluoromethoxy)-4-fluoro-1-benzothiophen-2-yl)carbonyl)-7-oxa-2,5-diazaspiro[3.4]octan-6-one]
13 | 98 | Cc1cc(Cl)ccc1CC1CCN(C(=O)N2CC3(CCC(=O)N3)C2)CC1 [Example 104, 2-((4-(4-chloro-2-methylbenzyl)piperidin-1-yl)carbonyl)-2,5-diazaspiro[3.4]octan-6-one]
14 | 83 | O=C1CCC2(CN(C(=O)c3cc4cc(-c5ccc(Cl)cc5)ccc4s3)C2)N1 [Example 150, 2-((5-(4-chlorophenyl)-1-benzothiophen-2-yl)carbonyl)-2,5-diazaspiro[3.4]octan-6-one]
15 | 97 | O=C1CCC2(CN(C(=O)c3sc4cc(-c5ccc(Cl)cc5)ccc4c3Cl)C2)N1 [Example 191, 2-((3-chloro-6-(4-chlorophenyl)-1-benzothiophen-2-yl)carbonyl)-2,5-diazaspiro[3.4]octan-6-one]
16 | 83 | O=C1CCC2(CN(C(=O)c3cc4ccc(Cl)cc4s3)C2)N1 [Example 147, 2-((6-chloro-1-benzothiophen-2-yl)carbonyl)-2,5-diazaspiro[3.4]octan-6-one]
17 | 99 | O=C1CCC2(CN(C(=O)c3sc4cc(OC(F)(F)F)cc(F)c4c3Cl)C2)N1 [Example 251, 2-((3-chloro-4-fluoro-6-(trifluoromethoxy)-1-benzothiophen-2-yl)carbonyl)-2,5-diazaspiro[3.4]octan-6-one]

Row | inhibition at 10 µM [%] | SMILES
18 | 99 | O=C1CCC2(CN(C(=O)N3CC(COc4ccc(F)cc4Cl)C3)C2)N1 [Example 34, 2-((3-((2-chloro-4-fluorophenoxy)methyl)azetidin-1-yl)carbonyl)-2,5-diazaspiro[3.4]octan-6-one]
19 | 100 | O=C1NC2(CCN(C(=O)c3sc4cc(F)cc(Cl)c4c3Cl)C2)CO1 (stereo not shown) [Example 332, 7-((3,4-dichloro-6-fluoro-1-benzothiophen-2-yl)carbonyl)-3-oxa-1,7-diazaspiro[4.4]nonan-2-one]
20 | 100 | O=C1NC2(CO1)CN(C(=O)[C@H]1C[C@@H](OCc3ccc(Cl)cc3Cl)C1)C2 [Example 349, 2-((cis-3-((2,4-dichlorobenzyl)oxy)cyclobutyl)carbonyl)-7-oxa-2,5-diazaspiro[3.4]octan-6-one]
21 | 101 | Cc1cc(OC(F)(F)F)cc2sc(C(=O)N3CCC4(COC(=O)N4)C3)c(Cl)c12 (stereo not shown) [Example 331, 7-((3-chloro-4-methyl-6-(trifluoromethoxy)-1-benzothiophen-2-yl)carbonyl)-3-oxa-1,7-diazaspiro[4.4]nonan-2-one]
22 | 100 | O=C1CCC2(CN(C(=O)c3sc4ccc(Cl)cc4c3-c3ccccc3)C2)N1 [Example 143, 2-((5-chloro-3-phenyl-1-benzothiophen-2-yl)carbonyl)-2,5-diazaspiro[3.4]octan-6-one]
23 | 98 | O=C1CCC2(CN(C(=O)c3sc4cc(-c5cccc(OC(F)(F)F)c5)ccc4c3Cl)C2)N1 [Example 201, 2-((3-chloro-6-(3-(trifluoromethoxy)phenyl)-1-benzothiophen-2-yl)carbonyl)-2,5-diazaspiro[3.4]octan-6-one]
24 | 101 | CC(C)(C)c1cccc(-c2ccc(C(=O)N3CC4(CCC(=O)N4)C3)cc2)c1 [Example 55, 2-((3′-tert-butylbiphenyl-4-yl)carbonyl)-2,5-diazaspiro[3.4]octan-6-one]
25 | 100 | COc1ccc2sc(C(=O)N3CC4(CCC(=O)N4)C3)c(Br)c2c1 [Example 152, 2-((3-bromo-5-methoxy-1-benzothiophen-2-yl)carbonyl)-2,5-diazaspiro[3.4]octan-6-one]
26 | 99 | O=C1CCC2(CN(C(=O)c3sc4cc(-c5ccc(Cl)cc5F)ccc4c3Cl)C2)N1 [Example 225, 2-((3-chloro-6-(4-chloro-2-fluorophenyl)-1-benzothiophen-2-yl)carbonyl)-2,5-diazaspiro[3.4]octan-6-one]
27 | 101 | Cc1ccc(F)cc1-c1ccc2c(Cl)c(C(=O)N3CC4(CCC(=O)N4)C3)sc2c1 [Example 205, 2-((3-chloro-6-(5-fluoro-2-methylphenyl)-1-benzothiophen-2-yl)carbonyl)-2,5-diazaspiro[3.4]octan-6-one]
28 | 100 | COc1ccccc1-c1ccc2c(Cl)c(C(=O)N3CC4(CCC(=O)N4)C3)sc2c1 [Example 195, 2-((3-chloro-6-(2-methoxyphenyl)-1-benzothiophen-2-yl)carbonyl)-2,5-diazaspiro[3.4]octan-6-one]
29 | 100 | O=C1CCC2(CN(C(=O)N3CCC(Cc4ccc(Cl)cc4)CC3)C2)N1 [Example 99, 2-((4-(4-chlorobenzyl)piperidin-1-yl)carbonyl)-2,5-diazaspiro[3.4]octan-6-one]
30 | 97 | O=C1CCC2(CN(C(=O)c3ccc(-c4ccc5sncc5c4)cc3)C2)N1 [Example 72, 2-(4-(1,2-benzothiazol-5-yl)benzoyl)-2,5-diazaspiro[3.4]octan-6-one]
31 | 99 | COc1ccc2c(Cl)c(C(=O)N3CC4(CCC(=O)N4)C3)sc2c1 [Example 139, 2-((3-chloro-6-methoxy-1-benzothiophen-2-yl)carbonyl)-2,5-diazaspiro[3.4]octan-6-one]
32 | 99 | Cc1c(C(=O)N2CC3(CCC(=O)N3)C2)sc2cc(C(F)(F)F)ccc12 [Example 366, 2-((3-methyl-6-(trifluoromethyl)-1-benzothiophen-2-yl)carbonyl)-2,5-diazaspiro[3.4]octan-6-one]
33 | 96 | O=C1CCC2(CN(C(=O)c3ccc4c(ccn4-c4ccc(C(F)(F)F)cn4)c3)C2)N1 [Example 14, 2-((1-(5-(trifluoromethyl)pyridin-2-yl)-1H-indol-5-yl)carbonyl)-2,5-diazaspiro[3.4]octan-6-one]

Same assay, conditions: MAGL inhibitory rate, test compound 10 μM, 60 min preincubation, 2-arachidonylglycerol substrate; 10 µM

Row | % inhibition (10 μM) [%] | SMILES
34 | 94 | O=C1NC2(CCN(C(=O)c3sc4cc(OC(F)(F)F)ccc4c3Cl)C2)CO1 (stereo not shown) [Example 324, 7-((3-chloro-6-(trifluoromethoxy)-1-benzothiophen-2-yl)carbonyl)-3-oxa-1,7-diazaspiro[4.4]nonan-2-one]
